In US9365572B2, “PI3K and/or mTOR inhibitor” (XUANZHU PHARMA CO., LTD., priority 2012, dated 2016):

Columns and labels:
Muscarinic M3 = Muscarinic M3 (Homo sapiens (Human), UniProt P20309); assay: Radioligand binding assay No. 252810; conditions: test substance 10 μM, read-out: Inhibitory rate (%), Muscarinic M3
[1] = test system: kinases listed in Table 3; assay: Kinase selectivity, whole panel of Table 3; assay type: biochemical; conditions: summary in words
Protocol: Object: In this assay, the inhibitory activity of the test substance on the kinases listed in Table 3 was determined, and therefore the selectivity of the present compound was determined.
Except for the BRAF V600E kinase in Table 3, the Mobility shift assay was used for other kinases.
• 1.1 1-fold kinase buffer without MnCl2: 50 mM HEPES, pH 7.5, 0.0015% Brij-35, 10 mM MgCl2, 2 mM DTT. • 1.2 1-fold kinase buffer with MnCl2: 50 mM HEPES, pH 7.5, 0.0015% Brij-35, 10 mM MgCl2, 10 mM MnCl2, 2 mM DTT. • 1.3 Termination solution: 100 mM HEPES, pH 7.5, 0.0015% Brij-35, 0.2% Coating Reagent#3, 50 mM EDTA. • 1.4 2.5-fold kinase solution: The kinase was added to the 1-fold kinase buffer to form a 2.5-fold kinase solution. • 1.5 2.5-fold substrate solution: FAM fluorescence-labelled polypeptide and ATP were added to the 1-fold kinase buffer to form a 2.5-fold substrate solution. 2. Preparation of 5-fold compound
The final test concentration of the compound was 10 μM at maximum. Firstly, a 50-fold concentration (i.e. 500 μM) was prepared with 100% DMSO. The compound was diluted with 100% DMSO by 5 folds at 5 concentrations (successively 500 μM, 100 μM, 20 μM, 4 μM, and 0.8 μM). […]
• 3.1 To the 384-well reaction plate was added 5-fold compound dissolved in 10% DMSO at 5 μl/well. • 3.2 To the 384-well reaction plate was added 2.5-fold kinase solution at 10 μl/well. […] The conversion was read from Caliper. […]

Muscarinic M3, sequence (P20309 whole entry): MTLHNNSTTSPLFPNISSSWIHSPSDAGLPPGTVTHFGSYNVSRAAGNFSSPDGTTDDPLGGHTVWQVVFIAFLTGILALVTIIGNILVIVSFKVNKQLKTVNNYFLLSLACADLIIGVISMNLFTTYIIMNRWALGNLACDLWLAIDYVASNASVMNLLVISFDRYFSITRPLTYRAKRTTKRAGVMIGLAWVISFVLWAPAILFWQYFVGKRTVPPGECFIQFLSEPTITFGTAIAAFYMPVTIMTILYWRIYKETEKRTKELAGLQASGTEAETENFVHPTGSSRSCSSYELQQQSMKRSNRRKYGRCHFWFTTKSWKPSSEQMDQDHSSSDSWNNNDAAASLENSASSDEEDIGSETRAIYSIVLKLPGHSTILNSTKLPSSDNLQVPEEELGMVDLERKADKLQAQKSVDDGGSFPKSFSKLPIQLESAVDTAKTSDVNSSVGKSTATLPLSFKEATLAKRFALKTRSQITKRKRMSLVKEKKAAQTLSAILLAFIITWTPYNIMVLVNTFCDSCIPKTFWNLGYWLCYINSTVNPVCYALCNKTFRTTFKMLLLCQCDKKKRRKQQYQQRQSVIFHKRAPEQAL

In the case of `Nc1ccc(-c2ccc3ncc4c(=O)[nH]c(=O)n(-c5cccc(C(F)(F)F)c5)c4c3n2)cn1` [Compound 5, 9-(6-aminopyridin-3-yl)-1-(3-(trifluoromethyl)phenyl)pyrimido[5,4-c][1,5]naphthyridine-2,4(1H,3H)-dione], the inhibition at 10 µM (Muscarinic M3) is reported as 13% and the “inhibitory activity for the kinases listed in Table 3” value [1] is reported as “no inhibitory activity”.
